Measurements as given in patent publication US10905738B2, “Synthetic peptides, prodrugs, pharmaceutical compositions and uses” (Biozeus Desenvolvimento De Produtos Biofarmacêuticos, priority 2018, dated 2021).
Where a SMILES comes first, the peptide text is derived from it.

Test system: smooth muscle of pulmonary arteries
Assay: relaxation of pulmonary arteries contracted with phenylephrine ex vivo
Set-up: species or system male Wistar rats
Details: n = 9; for pEC50: pulmonary arteries contracted with phenylephrine, peptides 1 nM-10 μM, mean±SEM; for Effectiveness (Emax) (%): relaxation percentage related to maximum phenylephrine contraction
Source text: The ex vivo model of pulmonary artery smooth muscle contraction with phenylephrine is very useful to screen candidate compounds for lung diseases that demand vasodilating effects (ALENCAR, A. K., PEREIRA, S. L., MONTAGNOLI, T. L., MAIA, R. C., KUMMERLE, A. E., LANDGRAF, S. S., CARUSO-NEVES, C., FERRAZ, E. B., TESCH, R., NASCIMENTO, J. H., DE SANT'ANNA, C. M., FRAGA, C. A., BARREIRO, E. J., SUDO, R. T., ZAPATA-SUDO, G. Beneficial effects of a novel agonist of the adenosine A2A receptor on monocrotaline-induced pulmonary hypertension in rats. Br J Pharmacol, 169: 953-62. 2013).
Rats were anesthetized with midazolam and ketamine (2 mg/kg and 100 mg/kg, respectively) via intraperitoneal administration. After infusion of a lethal dose of sodium thiopental via intraperitoneal administration (50 mg/kg), the trunk of the pulmonary artery was carefully removed via sternotomy. The pulmonary artery was carefully dissected and the connective tissue removed. The arteries were connected to a force transductor, positioned in vertical chambers filled with Krebs solution, oxygenated and kept at 37° C.
After a stabilization period of 2 hours at a tension of 1.5 grams, the arteries were exposed to increasing doses of phenylephrine (1 nM-10 μM) in order to obtain maximum smooth muscle contraction and then exposed to increasing doses of selected peptides in the concentrations of 1 nM-10 μM each (n=9). The tension generated by the pulmonary artery was evaluated at intervals of 5 minutes for each dose (ALENCAR, A. K., PEREIRA, S. L., MONTAGNOLI, T. L., MAIA, R. C., KUMMERLE, A. E., LANDGRAF, S. S., CARUSO-NEVES, C., FERRAZ, E. B., TESCH, R., NASCIMENTO, J. H., DE SANT'ANNA, C. M., FRAGA, C. A., BARREIRO, E. J., SUDO, R. T., ZAPATA-SUDO, G. Beneficial effects of a novel agonist of the adenosine A2A receptor on monocrotaline-induced pulmonary hypertension in rats. Br J Pharmacol 169: 953-62. 2013; ALENCAR, A. K., PEREIRA, S. L., DA SILVA, F. E., MENDES, L. V., CUNHA VDO, M., LIMA, L. M., MONTAGNOLI, T. L., CARUSO-NEVES, C., FERRAZ, E. B., TESCH, R., NASCIMENTO, J. H., SANT'ANNA, C. M., FRAGA, C. A., BARREIRO, E. J., SUDO, R. T., ZAPATA-SUDO, G. N-acylhydrazone derivative ameliorates monocrotaline-induced pulmonary hypertension through the modulation of adenosine AA2R activity. International Journal of Cardiology, 173(2): 154-62. 2014).
Potency values are shown as the negative logarithm of the concentration that reduced the voltage to 50% of the maximum phenylephrine-induced contraction (pEC50), and they are expressed as mean±SEM. The maximum contraction achieved in a given artery was considered to be 100% of contraction, and the effectiveness (Emax) was expressed as the relaxation percentage related to this maximum value. The results were calculated from at least 3 independent tests using the sigmoid non-linear regression equation, and the statistical analysis of the concentration curve was done by performing a nonlinear fit of the logarithmic of the agonist versus response. All the above calculations were performed on the software Graph Prism 5.0 (GraphPad Software, La Jolla, Calif., USA). Tension analysis was performed on the software LabChart7 (AD Instruments, Sydney, Australia). As a cutoff to determine biological significance, we considered pulmonary artery relaxation values above 30% as biologically relevant, considered those as active and then calculated the Emax values (SUN, C. K., LIN, Y. C., YUEN, C. M., CHUA, S., CHANG, L. T., SHEU, J. J., LEE, F. Y., FU, M., LEU, S., YIP, H. K. Enhanced protection against pulmonary hypertension with sildenafil and endothelial progenitor cell in rats. International journal of cardiology, 162(1): 45-58. 2012; ALENCAR, A. K., PEREIRA, S. L., DA SILVA, F. E., MENDES, L. V., CUNHA VDO, M., LIMA, L. M., MONTAGNOLI, T. L., CARUSO-NEVES, C., FERRAZ, E. B., TESCH, R., NASCIMENTO, J. H., SANT'ANNA, C. M., FRAGA, C. […]

SMILES	pEC50	Effectiveness (Emax) (%)
CC[C@H](C)[C@H](NC(=O)[C@H](Cc1c[nH]c2ccccc12)NC(=O)[C@H](Cc1ccccc1)NC(C)=O)C(=O)N[C@@H](C)C(=O)N[C@@H](Cc1c[nH]c2ccccc12)C(=O)N[C@@H](Cc1ccc(O)cc1)C(=O)N[C@@H](CCCCN)C(=O)N[C@@H](CC(C)C)C(=O)N[C@@H](C)C(N)=O [SEQ ID NO: 19, Ac-Phe-Trp-Ile-Ala-Trp-Tyr-Lys-Leu-Ala-NH2] (Ac-FWIAWYKLA-NH2)	6.9 ± 6.55	24% ± 9.71
CC[C@H](C)[C@H](NC(C)=O)C(=O)N[C@@H](C)C(=O)N[C@@H](Cc1c[nH]c2ccccc12)C(=O)N[C@@H](Cc1ccc(O)cc1)C(=O)N[C@@H](CCCCN)C(N)=O [SEQ ID NO: 24, Ac-Ile-Ala-Trp-Tyr-Lys-NH2] (Ac-IAWYK-NH2)	4.4 ± 6.4	5% ± 5.96
